According to ChEMBL document CHEMBL4507272 (2021):

Columns and labels:
[1] = system: Tyrosine-protein kinase ABL1 (Homo sapiens), P00519 [E255K]; settings: Compound concentration 1000.0 nM
[2] = system: Tyrosine-protein kinase ABL1 (Homo sapiens), P00519 [H396P]; settings: Compound concentration 1000.0 nM
[3] = biological target: Activin receptor type-1 (Homo sapiens) (UniProt Q04771); settings: Compound concentration 1000.0 nM
[4] = biological target: Serine/threonine-protein kinase B-raf (Homo sapiens) (UniProt P15056); settings: Compound concentration 1000.0 nM
[5] = biological target: Calcium/calmodulin-dependent protein kinase kinase 2 (Homo sapiens) (UniProt Q96RR4); settings: Compound concentration 1000.0 nM
[6] = biological target: Cyclin-dependent kinase 13 (Homo sapiens) (UniProt Q14004); settings: Compound concentration 1000.0 nM
[7] = biological target: Cyclin-dependent kinase 7 (Homo sapiens) (UniProt P50613); settings: Compound concentration 1000.0 nM
[8] = biological target: Cyclin-dependent kinase-like 1 (Homo sapiens) (UniProt Q00532); settings: Compound concentration 1000.0 nM
[9] = biological target: Casein kinase I isoform alpha (Homo sapiens) (UniProt P48729); settings: Compound concentration 1000.0 nM
[10] = biological target: Casein kinase II subunit alpha (Homo sapiens) (UniProt P68400); settings: Compound concentration 1000.0 nM
[11] = biological target: Discoidin domain-containing receptor 2 (Homo sapiens) (UniProt Q16832); settings: Compound concentration 1000.0 nM
[12] = biological target: Dual specificity tyrosine-phosphorylation-regulated kinase 1B (Homo sapiens) (UniProt Q9Y463); settings: Compound concentration 1000.0 nM
[13] = biological target: Ephrin type-A receptor 3 (Homo sapiens) (UniProt P29320); settings: Compound concentration 1000.0 nM
[14] = biological target: Ephrin type-A receptor 5 (Homo sapiens) (UniProt P54756); settings: Compound concentration 1000.0 nM
[15] = biological target: Mitogen-activated protein kinase 1 (Homo sapiens) (UniProt P28482); settings: Compound concentration 1000.0 nM
[16] = biological target: Mitogen-activated protein kinase 6 (Homo sapiens) (UniProt Q16659); settings: Compound concentration 1000.0 nM
[17] = system: Receptor-type tyrosine-protein kinase FLT3 (Homo sapiens), P36888 [UNDEFINED MUTATION]; settings: Compound concentration 1000.0 nM
[18] = biological target: Vascular endothelial growth factor receptor 3 (Homo sapiens) (UniProt P35916); settings: Compound concentration 1000.0 nM
[19] = biological target: Tyrosine-protein kinase Fyn (Homo sapiens) (UniProt P06241); settings: Compound concentration 1000.0 nM
[20] = biological target: Inhibitor of nuclear factor kappa-B kinase subunit beta (Homo sapiens) (UniProt O14920); settings: Compound concentration 1000.0 nM
[21] = biological target: Serine/threonine-protein kinase MAK (Homo sapiens) (UniProt P20794); settings: Compound concentration 1000.0 nM
[22] = biological target: Mitogen-activated protein kinase kinase kinase 4 (Homo sapiens) (UniProt Q9Y6R4); settings: Compound concentration 1000.0 nM
[23] = biological target: Serine/threonine-protein kinase 24 (Homo sapiens) (UniProt Q9Y6E0); settings: Compound concentration 1000.0 nM
[24] = biological target: Serine/threonine-protein kinase Nek10 (Homo sapiens) (UniProt Q6ZWH5); settings: Compound concentration 1000.0 nM
[25] = biological target: Serine/threonine-protein kinase Nek4 (Homo sapiens) (UniProt P51957); settings: Compound concentration 1000.0 nM
[26] = biological target: Serine/threonine-protein kinase Nek9 (Homo sapiens) (UniProt Q8TD19); settings: Compound concentration 1000.0 nM
[27] = biological target: Mitogen-activated protein kinase 14 (Homo sapiens) (UniProt Q16539); settings: Compound concentration 1000.0 nM
[28] = biological target: Mitogen-activated protein kinase 11 (Homo sapiens) (UniProt Q15759); settings: Compound concentration 1000.0 nM
[29] = biological target: Phosphatidylinositol 4,5-bisphosphate 3-kinase catalytic subunit alpha isoform (Homo sapiens) (UniProt P42336); settings: Compound concentration 1000.0 nM
[30] = system: Phosphatidylinositol 4,5-bisphosphate 3-kinase catalytic subunit alpha isoform (Homo sapiens), P42336 [E545A]; settings: Compound concentration 1000.0 nM
[31] = system: Phosphatidylinositol 4,5-bisphosphate 3-kinase catalytic subunit alpha isoform (Homo sapiens), P42336 [I800L]; settings: Compound concentration 1000.0 nM
[32] = biological target: Phosphatidylinositol 4,5-bisphosphate 3-kinase catalytic subunit beta isoform (Homo sapiens) (UniProt P42338); settings: Compound concentration 1000.0 nM
[33] = biological target: Phosphatidylinositol 5-phosphate 4-kinase type-2 beta (Homo sapiens) (UniProt P78356); settings: Compound concentration 1000.0 nM
[34] = biological target: Serine/threonine-protein kinase D1 (Homo sapiens) (UniProt Q15139); settings: Compound concentration 1000.0 nM
[35] = biological target: Serine/threonine-protein kinase SIK3 (Homo sapiens) (UniProt Q9Y2K2); settings: Compound concentration 1000.0 nM
[36] = biological target: Ribosomal protein S6 kinase alpha-6 (Homo sapiens) (UniProt Q9UK32); settings: Compound concentration 1000.0 nM
[37] = biological target: Serine/threonine-protein kinase SIK2 (Homo sapiens) (UniProt Q9H0K1); settings: Compound concentration 1000.0 nM
[38] = biological target: Proto-oncogene tyrosine-protein kinase Src (Homo sapiens) (UniProt P12931); settings: Compound concentration 1000.0 nM
[39] = biological target: Serine/threonine-protein kinase 35 (Homo sapiens) (UniProt Q8TDR2); settings: Compound concentration 1000.0 nM
[40] = biological target: STE20/SPS1-related proline-alanine-rich protein kinase (Homo sapiens) (UniProt Q9UEW8); settings: Compound concentration 1000.0 nM
[41] = biological target: Angiopoietin-1 receptor (Homo sapiens) (UniProt Q02763); settings: Compound concentration 1000.0 nM
[42] = biological target: Testis-specific serine/threonine-protein kinase 1 (Homo sapiens) (UniProt Q9BXA7); settings: Compound concentration 1000.0 nM
[43] = biological target: Wee1-like protein kinase 2 (Homo sapiens) (UniProt P0C1S8); settings: Compound concentration 1000.0 nM
[44] = biological target: 5-hydroxytryptamine receptor 3A (Homo sapiens) (UniProt P46098); settings: Compound concentration 10.0 uM
[45] = biological target: Sodium-dependent serotonin transporter (Homo sapiens) (UniProt P31645); settings: Compound concentration 10.0 uM
Sodium-dependent serotonin transporter (Homo sapiens), sequence (P31645 whole entry, looked up): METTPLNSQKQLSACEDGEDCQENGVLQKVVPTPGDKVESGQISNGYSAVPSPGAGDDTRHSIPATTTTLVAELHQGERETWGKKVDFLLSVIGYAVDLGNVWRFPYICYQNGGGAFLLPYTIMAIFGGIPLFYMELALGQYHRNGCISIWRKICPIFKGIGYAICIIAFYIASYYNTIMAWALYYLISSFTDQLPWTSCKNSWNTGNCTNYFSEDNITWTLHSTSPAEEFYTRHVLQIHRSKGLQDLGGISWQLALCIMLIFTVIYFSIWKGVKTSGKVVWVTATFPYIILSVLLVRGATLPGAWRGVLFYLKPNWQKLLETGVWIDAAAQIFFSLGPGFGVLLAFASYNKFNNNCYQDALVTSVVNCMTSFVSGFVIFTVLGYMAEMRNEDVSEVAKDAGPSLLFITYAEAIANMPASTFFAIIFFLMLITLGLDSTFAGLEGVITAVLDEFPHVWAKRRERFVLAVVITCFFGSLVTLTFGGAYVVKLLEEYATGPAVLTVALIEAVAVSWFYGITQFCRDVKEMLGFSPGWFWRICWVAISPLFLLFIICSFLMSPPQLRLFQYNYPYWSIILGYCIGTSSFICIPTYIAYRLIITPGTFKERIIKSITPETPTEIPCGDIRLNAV

Mitogen-activated protein kinase 11 (Homo sapiens), sequence (Q15759 whole entry, canonical isoform): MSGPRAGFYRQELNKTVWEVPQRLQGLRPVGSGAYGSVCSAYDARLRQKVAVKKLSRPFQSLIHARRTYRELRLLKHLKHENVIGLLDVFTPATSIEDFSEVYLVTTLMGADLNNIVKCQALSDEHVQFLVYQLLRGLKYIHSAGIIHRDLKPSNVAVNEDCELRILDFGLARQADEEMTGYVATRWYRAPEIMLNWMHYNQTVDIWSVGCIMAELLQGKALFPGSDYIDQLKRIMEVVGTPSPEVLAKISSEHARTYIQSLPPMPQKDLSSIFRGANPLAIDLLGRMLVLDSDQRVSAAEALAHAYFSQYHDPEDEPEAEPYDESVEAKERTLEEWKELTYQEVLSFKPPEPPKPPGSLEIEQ
Mitogen-activated protein kinase 6 (Homo sapiens), sequence (Q16659 whole entry): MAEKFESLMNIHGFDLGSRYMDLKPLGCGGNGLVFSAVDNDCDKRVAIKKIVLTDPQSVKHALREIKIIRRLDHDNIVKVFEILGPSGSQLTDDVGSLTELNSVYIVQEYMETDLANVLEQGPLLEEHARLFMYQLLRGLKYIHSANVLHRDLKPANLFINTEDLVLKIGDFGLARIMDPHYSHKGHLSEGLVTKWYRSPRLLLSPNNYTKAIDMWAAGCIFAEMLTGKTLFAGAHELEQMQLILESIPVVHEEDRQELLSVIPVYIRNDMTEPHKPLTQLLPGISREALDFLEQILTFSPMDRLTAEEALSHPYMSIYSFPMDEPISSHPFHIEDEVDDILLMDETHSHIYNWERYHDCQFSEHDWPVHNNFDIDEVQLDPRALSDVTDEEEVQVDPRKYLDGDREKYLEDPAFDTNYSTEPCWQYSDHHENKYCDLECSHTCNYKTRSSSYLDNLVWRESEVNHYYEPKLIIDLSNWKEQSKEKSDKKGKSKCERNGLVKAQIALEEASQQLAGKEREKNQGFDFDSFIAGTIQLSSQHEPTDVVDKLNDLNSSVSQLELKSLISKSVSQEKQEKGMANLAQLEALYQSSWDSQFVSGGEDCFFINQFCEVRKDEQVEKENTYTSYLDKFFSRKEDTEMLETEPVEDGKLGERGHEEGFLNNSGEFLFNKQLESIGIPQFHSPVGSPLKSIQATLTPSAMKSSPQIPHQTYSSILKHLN
Phosphatidylinositol 4,5-bisphosphate 3-kinase catalytic subunit alpha isoform (Homo sapiens), P42336 [I800L], sequence (P42336 whole entry I800L, canonical isoform): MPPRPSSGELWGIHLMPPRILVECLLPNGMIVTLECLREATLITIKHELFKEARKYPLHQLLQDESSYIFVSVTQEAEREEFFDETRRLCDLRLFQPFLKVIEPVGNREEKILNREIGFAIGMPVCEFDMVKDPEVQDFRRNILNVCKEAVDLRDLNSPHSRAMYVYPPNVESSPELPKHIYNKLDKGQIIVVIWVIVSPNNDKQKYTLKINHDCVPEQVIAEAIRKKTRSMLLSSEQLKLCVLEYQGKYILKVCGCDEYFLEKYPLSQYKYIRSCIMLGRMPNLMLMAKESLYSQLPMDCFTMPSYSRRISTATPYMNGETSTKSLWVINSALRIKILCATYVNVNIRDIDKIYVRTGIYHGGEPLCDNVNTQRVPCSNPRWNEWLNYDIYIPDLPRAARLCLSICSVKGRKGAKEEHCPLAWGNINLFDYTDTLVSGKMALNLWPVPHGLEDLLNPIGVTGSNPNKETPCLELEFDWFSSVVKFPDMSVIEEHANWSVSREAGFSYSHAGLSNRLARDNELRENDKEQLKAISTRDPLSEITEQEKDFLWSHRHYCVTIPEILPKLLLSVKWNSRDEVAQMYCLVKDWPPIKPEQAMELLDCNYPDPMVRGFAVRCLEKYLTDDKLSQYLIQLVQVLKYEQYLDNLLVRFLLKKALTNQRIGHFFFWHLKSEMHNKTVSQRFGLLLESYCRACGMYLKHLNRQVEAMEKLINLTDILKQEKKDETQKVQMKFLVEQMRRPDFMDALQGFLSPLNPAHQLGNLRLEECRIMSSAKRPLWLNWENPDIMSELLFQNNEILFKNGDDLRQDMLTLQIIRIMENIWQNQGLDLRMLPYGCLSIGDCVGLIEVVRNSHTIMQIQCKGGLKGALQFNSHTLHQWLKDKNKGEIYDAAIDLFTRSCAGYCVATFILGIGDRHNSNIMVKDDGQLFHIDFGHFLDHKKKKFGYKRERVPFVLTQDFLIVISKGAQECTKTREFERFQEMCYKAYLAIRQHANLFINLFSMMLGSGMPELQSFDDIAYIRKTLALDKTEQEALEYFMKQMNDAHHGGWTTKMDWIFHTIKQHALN
Phosphatidylinositol 4,5-bisphosphate 3-kinase catalytic subunit beta isoform (Homo sapiens), sequence (P42338 whole entry, looked up, canonical isoform): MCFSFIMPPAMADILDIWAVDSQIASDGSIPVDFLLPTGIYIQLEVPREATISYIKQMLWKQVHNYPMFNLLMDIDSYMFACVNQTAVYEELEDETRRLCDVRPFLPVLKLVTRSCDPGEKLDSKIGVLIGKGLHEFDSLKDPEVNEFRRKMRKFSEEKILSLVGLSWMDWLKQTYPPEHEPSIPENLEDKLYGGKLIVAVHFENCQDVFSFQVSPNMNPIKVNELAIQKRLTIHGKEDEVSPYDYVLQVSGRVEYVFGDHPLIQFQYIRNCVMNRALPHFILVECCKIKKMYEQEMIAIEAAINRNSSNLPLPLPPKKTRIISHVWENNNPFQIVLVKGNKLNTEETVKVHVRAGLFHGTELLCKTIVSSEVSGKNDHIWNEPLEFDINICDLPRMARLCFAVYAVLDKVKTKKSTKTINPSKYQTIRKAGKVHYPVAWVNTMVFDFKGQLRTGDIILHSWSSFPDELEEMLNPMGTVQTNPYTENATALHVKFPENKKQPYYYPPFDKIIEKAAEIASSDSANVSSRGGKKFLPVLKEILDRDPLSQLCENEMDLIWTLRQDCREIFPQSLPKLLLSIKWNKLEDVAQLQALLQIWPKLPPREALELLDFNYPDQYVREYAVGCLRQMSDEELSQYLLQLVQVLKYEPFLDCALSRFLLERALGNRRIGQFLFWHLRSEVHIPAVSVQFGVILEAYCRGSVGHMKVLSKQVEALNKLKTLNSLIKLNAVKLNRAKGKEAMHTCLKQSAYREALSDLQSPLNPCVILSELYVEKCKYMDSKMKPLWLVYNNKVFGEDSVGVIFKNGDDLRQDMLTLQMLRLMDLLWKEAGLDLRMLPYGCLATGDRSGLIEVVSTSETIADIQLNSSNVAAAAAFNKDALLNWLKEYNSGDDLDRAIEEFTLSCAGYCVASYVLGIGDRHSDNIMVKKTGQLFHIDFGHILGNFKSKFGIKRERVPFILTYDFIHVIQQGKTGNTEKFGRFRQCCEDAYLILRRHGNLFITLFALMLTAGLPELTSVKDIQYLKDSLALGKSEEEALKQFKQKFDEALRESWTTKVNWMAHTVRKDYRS
Cyclin-dependent kinase 7 (Homo sapiens), sequence (P50613 whole entry): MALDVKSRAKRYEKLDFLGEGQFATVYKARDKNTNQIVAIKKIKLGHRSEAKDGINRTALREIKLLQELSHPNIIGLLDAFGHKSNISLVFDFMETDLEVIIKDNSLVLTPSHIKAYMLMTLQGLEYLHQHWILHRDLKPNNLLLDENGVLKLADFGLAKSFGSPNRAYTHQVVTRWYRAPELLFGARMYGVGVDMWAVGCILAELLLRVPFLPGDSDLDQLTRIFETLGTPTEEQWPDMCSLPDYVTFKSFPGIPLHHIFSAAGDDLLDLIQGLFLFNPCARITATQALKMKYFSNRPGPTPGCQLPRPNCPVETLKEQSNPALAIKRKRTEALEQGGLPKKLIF
Serine/threonine-protein kinase B-raf (Homo sapiens), sequence (P15056 whole entry): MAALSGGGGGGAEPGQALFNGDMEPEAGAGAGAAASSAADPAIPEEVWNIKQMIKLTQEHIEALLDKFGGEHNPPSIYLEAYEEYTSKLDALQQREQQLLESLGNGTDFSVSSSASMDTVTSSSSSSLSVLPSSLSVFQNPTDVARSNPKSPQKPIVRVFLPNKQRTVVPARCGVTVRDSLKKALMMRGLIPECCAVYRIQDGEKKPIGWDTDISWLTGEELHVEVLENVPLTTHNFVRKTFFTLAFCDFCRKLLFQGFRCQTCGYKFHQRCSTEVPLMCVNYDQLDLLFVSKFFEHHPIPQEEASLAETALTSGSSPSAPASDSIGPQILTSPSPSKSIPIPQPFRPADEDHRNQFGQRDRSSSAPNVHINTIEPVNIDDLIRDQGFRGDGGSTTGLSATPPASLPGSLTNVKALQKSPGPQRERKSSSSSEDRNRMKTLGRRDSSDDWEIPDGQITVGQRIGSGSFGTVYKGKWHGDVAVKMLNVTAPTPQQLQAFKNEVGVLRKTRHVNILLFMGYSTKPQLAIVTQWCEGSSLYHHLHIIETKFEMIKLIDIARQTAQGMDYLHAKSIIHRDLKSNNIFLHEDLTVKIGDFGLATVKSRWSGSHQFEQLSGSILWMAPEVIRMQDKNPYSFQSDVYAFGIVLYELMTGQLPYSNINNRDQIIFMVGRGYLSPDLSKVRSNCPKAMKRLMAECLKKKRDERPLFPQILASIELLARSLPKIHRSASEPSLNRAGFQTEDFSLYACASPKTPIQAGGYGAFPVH

CC(=O)C1=C(C)N(c2cccc(C(F)(F)F)c2)C(=O)N[C@@H]1c1ccc(C#N)nc1 [BAY-678]
inactive: residual activity [1] 75% | residual activity [2] 100% | residual activity [3] 74.5% | residual activity [4] 78.5% | residual activity [5] 100% | residual activity [6] 100% | residual activity [7] 90.6% | residual activity [8] 80.9% | residual activity [9] 91.5% | residual activity [10] 94.8% | residual activity [11] 87.6% | residual activity [12] 100% | residual activity [13] 100% | residual activity [14] 98.2% | residual activity [15] 98.9% | residual activity [16] 75.8% | residual activity [17] 87.4% | residual activity [18] 100% | residual activity [19] 100% | residual activity [20] 100% | residual activity [21] 82.5% | residual activity [22] 100% | residual activity [23] 95.4% | residual activity [24] 96.4% | residual activity [25] 93.9% | residual activity [26] 100% | residual activity [27] 100% | residual activity [28] 100% | residual activity [29] 100% | residual activity [30] 75.6% | residual activity [31] 75.4% | residual activity [32] 100% | residual activity [33] 52.8% | residual activity [34] 95.7% | residual activity [35] 100% | residual activity [36] 100% | residual activity [37] 87.8% | residual activity [38] 95.9% | residual activity [39] 85.9% | residual activity [40] 90.8% | residual activity [41] 100% | residual activity [42] 100% | residual activity [43] 100% | inhibition [44] -7.63% | inhibition [45] -2.61%
